According to patent publication US20250177324A1, “A[…], AND PREPARATION METHOD THEREFOR AND USE THEREOF” (SHANGHAI ZHIGEN PHARMACEUTICAL & TECHNOLOGY CO. LTD., priority 2022, published 2025):
Structures can show the parent of a compound that is named as a salt. Where two headings read alike, the source gives them in different places.

Columns and labels:
[1] = Solid-state chemical stability under different storage conditions (liquid chromatography); type: physicochemical; settings: for Stability of solid state compound, 0 Days (%): liquid chromatography
Protocol: The HPLC conditions were as follows:
Configuration of test solution: appropriate amount of sample was dissolved and diluted with a diluent (0.03 mol/L phosphate buffer-acetonitrile (80:20)) to make 1 mg/mL solution.
Chromatographic conditions: according to the high performance liquid chromatography (Chinese Pharmacopoeia 2020 version of the four general 0512) test, using octadecyl-bonded silica gel (Agilent Eclipse Plus C18, 4.6 mm*250 mm, 5.0 μm, P/N for 959990-902 or a chromatographic column with equivalent performance) as a filler; 0.03 mol/L phosphate buffer (4.08 g of potassium dihydrogen phosphate was dissolved in 1000 ml of water and shaken well) was used as mobile phase A and acetonitrile as mobile phase B at a flow rate of 1 ml/min, the column temperature was 30° C., the detection wavelength was 220 nm, the injection volume was 10 ul, and the sample plate was controlled to 8° C. and running for 65 min. Gradient elution was performed according to the following table: […]
Configuration of test solution: appropriate amount of the product was dissolved and diluted with a diluent (0.1% phosphoric acid-acetonitrile (80:20)) to make 1 mg/mL solution.
Chromatographic conditions: according to the high performance liquid chromatography (Chinese Pharmacopoeia 2020 version of the four general 0512) test, using octadecyl bonded silica gel (Agilent Eclipse Plus C18, 4.6 mm*250 mm, 5.0 μm, P/N 959990-902 or a chromatographic column with equivalent performance) as a filler; 0.1% phosphate buffer (1 ml of phosphoric acid in 1000 ml of water and shake well) as mobile phase A, acetonitrile as mobile phase B, flow rate of 1 ml/min, column temperature of 30° C., detection wavelength of 220 nm, injection volume of 10 ul, running for 48 minutes. Gradient elution was performed according to the following table: […]

C57 mice = assay: Forced swim test of oral administration in mice (antidepressant activity); type: in vivo; settings: for inhibition in vivo at 20 mg/kg: Mus musculus, po
Protocol: To investigate the effects of different compounds on depression-like behavior in C57 mice by single oral administration of 20 mg/kg for 1 h and 24 h followed by forced swimming experiment, respectively.
The experimental animals were 6-week-old C57 mice, male, C57 breed mice purchased from Shanghai Slaughter Laboratory Animal Co. Ltd, weighing 20.45±0.19 g. The animals arrived at the Animal Breeding Center of the Shanghai Institute of Pharmaceutical Sciences, Chinese Academy of Sciences (Animal Production License: SCXK9[Shanghai]2004-0002, Use License: SYXK [Shanghai]2003-0029) before the experiments and were acclimated to the animal facilities for more than 3 days, 6 animals/cage were feed. The feeding environment was room temperature 23±0.2° C. and 12/12 h day/night alternating light and dark. Prior to behavioral testing, animals were moved to the behavioral testing room 2 hours in advance to acclimatize them to the environment and reduce their nervousness.
Preparation of the test material: the test compounds were weighed and dissolved in 0.9% NaCl solution, mixed well, and prepared into 1 mg/ml and 2 mg/ml solution for use, respectively.
24 h prior to drug administration, mice were placed in a cylindrical tank to acclimatize to the water environment for 10 min. On the day of the behavioral test, the animals were administered the drug once, by gavage/intraperitoneal injection at 1 h and 24 h prior to the behavioral test, respectively (as shown in Table 1).
The antidepressant effect of the compounds was evaluated by their ability to cause a reduction in the immobility time of the animals in the forced swim test compared to the blank group.

[2] = Brain tissue distribution study in rats; type: in vivo; settings: SD rats, 10 mg/kg gavage
Protocol: Healthy male SD rats, randomly grouped with 3 rats in each group, were given the test compounds by gavage.
Each test compound was dissolved in saline to form a certain concentration solution for administration.
Fasting but not abstaining from water for 12-14 hours on the day before administration, and food was given 4 h after administration.
Brain tissues were collected after the animals were bled, cleaned, and homogenized with 50% ice methanol 1:4 (m/v). The collection time points were 5 min, 10 min, 30 min, and 2 h after the administration of subjects; 30.0 μL of tissue samples were taken (the samples were taken from the refrigerator at −80° C. and vortexed for 30 s after natural dissolution at room temperature) into 1.5 mL centrifugal tubes, and 300.0 μL of the internal standard solution (30 ng/mL buspirone in acetonitrile) was added; the samples were vortexed for 60 s, and centrifuged for 3 min (the centrifugal force was 12,000 rpm). 75 μL of the supernatant was transferred to a 96-well plate containing an equal volume of water, shaken to mix well and then sampled for LC-MS/MS analysis, the sample volume is 10 μL.

[3] = reduction of immobility time vs blank group, single gavage 20 mg/kg, test 1 h after dosing, read-out: 1 h inhibition (%)
[4] = reduction of immobility time vs blank group, single gavage 20 mg/kg, test 24 h after dosing, read-out: 24 h inhibition (%)

SMILES | Stability of solid state compound, 0 Days (%) ([1]; 40° C., 75% RH) | Stability of solid state compound, 10 Days (%) ([1]; 40° C., 75% RH) | inhibition in vivo at 20 mg/kg (C57 mice; [3]) | inhibition in vivo at 20 mg/kg (C57 mice; [4]) | Stability of solid state compound, 5 Days (%) ([1]; 40° C., 75% RH) | Stability of solid state compound, 30 Days (%) ([1]; 40° C., 75% RH) | further results
C[C@]1(O)CCC[C@@](N)(c2ccc(C(F)(F)F)cc2)C1=O.Cl [Compound 54, (2R, 6S)-2-amino-6-hydroxy-6-methyl-2-(4-(trifluoromethyl)phenyl)cyclohexan-1-one hydrochloride] | 99.27% | 99.23% | 33 ± 2.5% | 38.7 ± 3.3% |  |  | Stability of solid state compound, 60 Days (%) ([1]; 40° C., 75% RH): 99.20%
Cl.N[C@@]1(c2ccc(C(F)(F)F)cc2)CCC[C@@H](O)C1=O [Comparative compound 1, reference compound] | 99.98% | 98.74% | 30.6 ± 3.1% | 35 ± 0.3% | 98.94% | 95.88% | Stability of solid state compound, 60 Days (%) ([1]; 40° C., 75% RH): 91.57%
Cl.[2H]C([2H])([2H])N[C@@]1(c2ccc(C(F)(F)F)cc2)CCC[C@](C)(O)C1=O [Compound 76, (2S,6R)-2-hydroxy-2-methyl-6-trideutero-methylamino-6-(4-(trifluoromethyl)phenyl)cyclohexan-1-one hydrochloride] | 99.88% | 99.65% | 65.2 ± 0.8% | 47.1 ± 3.2% |  | 99.84% | 
CN[C@@]1(c2cccc(OC(F)(F)F)c2)CCC[C@](C)(O)C1=O.Cl [Compound 68, (2S,6R)-2-hydroxy-2-methyl-6-methylamino-6-(3-(trifluoromethoxy)phenyl)cyclohexan-1-one hydrochloride] | 99.12% | 99.12% | 26.2 ± 4.1% | 37.4 ± 0.7% | 99.11% |  | 
CNC1(c2cccc(F)c2F)CCCC(C)(O)C1=O.Cl (stereo not drawn) [Compound 65, 2-(2,3-difluorophenyl)-6-hydroxy-6-methyl-2-methylaminocyclohexan-1-one hydrochloride] | 99.54% | 99.32% | 26.4 ± 1.1% | 37.9 ± 2.3% | 99.37% | 99.22% | 
CN[C@@]1(c2cccc(OC(F)(F)F)c2F)CCC[C@](C)(O)C1=O [Compound 57, (2R,6S)-2-(2-fluoro-3-(trifluoromethoxy)phenyl)-6-hydroxy-6-methyl-2-(methylamino)cyclohexan-1-one hydrochloride] |  |  | 42.2 ± 1.8% | 36.5 ± 3% |  |  | 
CC1(C)C[C@@H](O)C(=O)[C@](N)(c2ccccc2Cl)C1 [Comparative compound 6, reference compound] |  |  | 18.2 ± 1.6% | 11.3 ± 2% |  |  | 
C[C@@H]1CC[C@@](N)(c2ccccc2Cl)C(=O)[C@@H]1O [Comparative compound 3, reference compound] |  |  | 22.6 ± 2.7% | 23.7 ± 3.2% |  |  | 
N[C@@]1(c2ccccc2Cl)CCC[C@@H](O)C1=O [(2R,6R)-HNK, reference compound] | 99.18% | 97.85% |  |  | 98.54% |  | brain/plasma ratio [2]: 0.95; AUC0-t brain ([2]; brain): 2480 ng·h/g; Cmax brain ([2]; brain): 1495 ng/g; AUC0-t plasma ([2]; plasma): 2610 ng·h/mL; Cmax plasma ([2]; plasma): 1480 ng/mL; 1 h inhibition (%) (C57 mice; reduction of immobility time vs blank group, single gavage 20 mg/kg, test 1 h after dosing): 21.1 ± 1.4%; 24 h inhibition (%) (C57 mice; reduction of immobility time vs blank group, single gavage 20 mg/kg, test 24 h after dosing): 24.8 ± 6.9%
CNCCC(Oc1ccc(C(F)(F)F)cc1)c1ccccc1 (stereo not drawn) [Fluoxetine, reference compound] |  |  | 2.4 ± 1.1% | 2.3 ± 3.1% |  |  | antidepressant effect in the forced swim test (in words) (C57 mice; oral administration, 1 h and 24 h): did not show antidepressant effect
N[C@@]1(c2ccccc2Cl)CC2(CC2)C[C@@H](O)C1=O [Comparative compound 5, reference compound] |  |  | 22.8 ± 2.5% | 19.1 ± 2.1% |  |  | 
C[C@@]1(O)CCC[C@@](N)(c2ccc(C(F)(F)F)cc2)C1=O.Cl [Compound 52, (2R, 6R)-2-amino-6-hydroxy-6-methyl-2-(4-(trifluoromethyl)phenyl)cyclohexan-1-one hydrochloride] | 99.89% | 99.89% | 29.5 ± 1.1% | 25.6 ± 2.1% |  | 99.90% | Stability of solid state compound, 60 Days (%) ([1]; 40° C., 75% RH): 99.88%; Stability of solid state compound, 180 Days (%) ([1]; 40° C., 75% RH, 180 days): 99.82%
CCN[C@@]1(c2ccc(C(F)(F)F)cc2)CCC[C@](C)(O)C1=O.Cl [Compound 77, (2R,6S)-2-ethylamino-6-hydroxy-6-methyl-2-(4-(trifluoromethyl)phenyl)cyclohexan-1-one hydrochloride] |  |  | 69.8 ± 1.6% | 44.3 ± 3.5% |  |  | Stability of solid state compound, 0 Days (%) ([1]; 25° C., 60% RH): 99.70%; Stability of solid state compound, 10 Days (%) ([1]; 25° C., 60% RH): 99.69%; Stability of solid state compound, 30 Days (%) ([1]; 25° C., 60% RH): 99.70%
CC1(C)CC[C@@](N)(c2ccccc2Cl)C(=O)[C@@H]1O [Comparative compound 4, reference compound] |  |  | 2.9 ± 1% | -17.2 ± 2% |  |  | 
CN[C@@]1(c2ccc(C(F)(F)F)cc2)CCC[C@@](C)(O)C1=O.Cl [Compound 71, (2R,6R)-2-hydroxy-2-methyl-6-methylamino-6-(4-(trifluoromethyl)phenyl)cyclohexan-1-one hydrochloride] | 99.67% | 99.46% | 42.4 ± 0.4% | 40.2 ± 1.6% | 99.46% | 99.45% | 
